Data from BindingDB's records for doi:10.1016/j.bmc.2006.03.042 (F. Hoffmann-La Roche, 2006).

Experiments:
Assay in all cases: Serine Protease Inhibition Assay
Coagulation factor VII = target: T1, Coagulation factor VII (Homo sapiens, UniProt P08709); details: pH 7.8; 22 °C
T1 sequence (P08709 whole entry): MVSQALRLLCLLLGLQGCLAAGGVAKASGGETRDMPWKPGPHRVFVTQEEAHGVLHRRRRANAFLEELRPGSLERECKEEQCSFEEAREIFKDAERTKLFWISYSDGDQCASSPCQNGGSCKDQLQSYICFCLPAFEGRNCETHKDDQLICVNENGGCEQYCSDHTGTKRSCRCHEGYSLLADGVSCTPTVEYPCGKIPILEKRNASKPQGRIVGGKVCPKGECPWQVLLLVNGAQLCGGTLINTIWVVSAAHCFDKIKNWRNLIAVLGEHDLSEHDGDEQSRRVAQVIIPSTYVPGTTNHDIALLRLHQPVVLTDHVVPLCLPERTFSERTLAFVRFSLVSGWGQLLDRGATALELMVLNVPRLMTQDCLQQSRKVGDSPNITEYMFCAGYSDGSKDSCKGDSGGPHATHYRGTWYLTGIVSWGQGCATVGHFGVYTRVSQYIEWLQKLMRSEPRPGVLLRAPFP
Method: (§1) The enzyme reactions were initiated by the addition of substrate, and the color developed from the release of p-nitroanilide from each chromogenic substrate was monitored continuously for 5 min at 405 nm on a microtiter plate reader. […] The apparent Ki values were then calculated according to the Cheng-Prusoff equation: Ki = IC50/1 + [S]/Km.

Prothrombin = Prothrombin (Homo sapiens, UniProt P00734); details: pH 7.8; 22 °C
Method: as §1

Serine protease 1 = target: T2, Serine protease 1 (Bos taurus, UniProt P00760)
T2 sequence (P00760 whole entry): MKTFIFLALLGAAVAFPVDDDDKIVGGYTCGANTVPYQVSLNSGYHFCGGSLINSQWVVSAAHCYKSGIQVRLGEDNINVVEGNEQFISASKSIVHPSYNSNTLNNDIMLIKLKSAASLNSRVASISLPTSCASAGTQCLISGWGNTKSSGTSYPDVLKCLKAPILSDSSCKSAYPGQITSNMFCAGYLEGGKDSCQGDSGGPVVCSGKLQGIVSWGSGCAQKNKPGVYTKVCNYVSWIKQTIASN
Method: as §1

Coagulation factor X = Coagulation factor X (Homo sapiens, UniProt P00742)
Chain of Coagulation factor X (P00742 41-179 limits assumed): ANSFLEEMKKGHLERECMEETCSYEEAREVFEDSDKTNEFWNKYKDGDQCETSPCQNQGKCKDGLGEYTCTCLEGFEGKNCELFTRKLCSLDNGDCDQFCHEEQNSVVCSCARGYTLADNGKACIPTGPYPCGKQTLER
Chain of Coagulation factor X (P00742 235-488 limits assumed): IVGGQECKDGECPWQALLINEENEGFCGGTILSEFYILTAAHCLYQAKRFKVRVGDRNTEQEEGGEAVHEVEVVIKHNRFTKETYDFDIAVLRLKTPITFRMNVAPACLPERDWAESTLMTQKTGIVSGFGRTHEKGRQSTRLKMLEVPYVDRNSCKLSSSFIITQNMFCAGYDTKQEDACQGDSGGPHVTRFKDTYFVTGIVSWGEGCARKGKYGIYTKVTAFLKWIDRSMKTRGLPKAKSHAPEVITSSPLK
Method: as §1

Compound	Ki (Coagulation factor VII) [µM]	Ki (Prothrombin) [µM]	Ki (Serine protease 1) [µM]	Ki (Coagulation factor X) [µM]
CCOc1cc(OCC)c(F)c(C(Nc2ccc(C(=N)N)cc2)C(=O)O)c1 (racemic) [2-[(4-carbamimidoylphenyl)amino]-2-(3,5-diethoxy-2-fluorophenyl)acetic acid]	0.2	8.8	6.8	3
CCOc1cc(OCC)cc(C(Nc2ccc(C(=N)N)cc2)C(=O)O)c1 (stereo not given) [2-[(4-carbamimidoylphenyl)amino]-2-(3,5-diethoxyphenyl)acetic acid]	–	> 35	–	–
CCOc1cc(O[C@@H]2CCOC2)c(F)c([C@@H](Nc2ccc(C(=N)N)cc2)C(=O)O)c1 [2-[(4-carbamimidoylphenyl)amino]-2-[5-ethoxy-2-fluoro-3-(oxolan-3-yloxy)phenyl]acetic acid]	0.088	7.1	3.1	1.2
COc1ccc(-c2ccc(C(=O)N[C@H](CO)C(C)(C)C)cc2C(=O)O)c(C(=O)Nc2ccc(C(=N)N)cc2)n1 [2-{2-[(4-carbamimidoylphenyl)carbamoyl]-6-methoxypyridin-3-yl}-5-{[(2S)-1-hydroxy-3,3-dimethylbutan-2-yl]carbamoyl}benzoic acid]	0.01	4.3	0.24	0.15
CCOc1cc(O[C@@H]2CCOC2)c(F)c([C@@H](Nc2ccc(C(=N)N)cc2)C(=O)O)c1 [(2R)-2-[(4-carbamimidoylphenyl)amino]-2-{5-ethoxy-2-fluoro-3-[(3R)-oxolan-3-yloxy]phenyl}acetic acid]	0.081	4.5	3.2	1.9
CCOc1cc(OC2CCOC2)cc(C(Nc2ccc(C(=N)N)cc2)C(=O)O)c1 (stereo not given) [(4-Carbamimidoyl-phenylamino)-[3-ethoxy-5-(tetra-hydrofuran-3-yloxy)-phenyl]-acetic acid]	–	10.7	> 6.8	2.9
